Assay results taken from BindingDB's records for doi:10.1124/jpet.104.069260 (University of Texas At Austin, 2004).

Target: Sodium-dependent serotonin transporter (Homo sapiens, UniProt P31645)
Sequence (P31645 whole entry): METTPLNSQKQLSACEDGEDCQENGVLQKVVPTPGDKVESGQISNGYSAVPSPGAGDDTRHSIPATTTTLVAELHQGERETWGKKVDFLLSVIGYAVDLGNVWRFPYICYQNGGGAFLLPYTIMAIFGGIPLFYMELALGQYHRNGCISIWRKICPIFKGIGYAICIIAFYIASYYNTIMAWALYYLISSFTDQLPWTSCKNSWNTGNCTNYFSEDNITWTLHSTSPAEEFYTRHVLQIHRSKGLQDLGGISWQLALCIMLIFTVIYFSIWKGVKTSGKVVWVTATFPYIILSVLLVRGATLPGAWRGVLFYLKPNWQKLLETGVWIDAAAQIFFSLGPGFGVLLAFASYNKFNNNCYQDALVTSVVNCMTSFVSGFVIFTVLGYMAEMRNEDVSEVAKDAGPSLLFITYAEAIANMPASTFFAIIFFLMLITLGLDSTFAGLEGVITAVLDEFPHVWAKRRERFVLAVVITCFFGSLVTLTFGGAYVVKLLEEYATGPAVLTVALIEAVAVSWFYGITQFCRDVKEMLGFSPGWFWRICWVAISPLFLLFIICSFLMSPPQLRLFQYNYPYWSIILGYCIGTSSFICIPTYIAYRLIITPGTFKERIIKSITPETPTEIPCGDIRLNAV

Row | SMILES | Ki [µM]
1 | CC(N)Cc1ccc2c(c1)OCO2 (configuration not stated) | > 10
2 | CN[C@@H](C)Cc1ccc2c(c1)OCO2 [DL-(3,4-Methylenedioxy)methamphetamine] | > 10
